Experimental data: patent publication US20250340569A1, “INHIBITORS OF KIF18A AND USES THEREOF” (Insilico Medicine IP Limited, priority 2023, published 2025)

Experiments:
[1] = biological target: T1, Kif18A (Homo sapiens, UniProt Q8NI77); assay: KIF18A assay (ADP Glo); conditions: biochemical assay, ADP Glo luminescence
T1 sequence (Q8NI77 1-898): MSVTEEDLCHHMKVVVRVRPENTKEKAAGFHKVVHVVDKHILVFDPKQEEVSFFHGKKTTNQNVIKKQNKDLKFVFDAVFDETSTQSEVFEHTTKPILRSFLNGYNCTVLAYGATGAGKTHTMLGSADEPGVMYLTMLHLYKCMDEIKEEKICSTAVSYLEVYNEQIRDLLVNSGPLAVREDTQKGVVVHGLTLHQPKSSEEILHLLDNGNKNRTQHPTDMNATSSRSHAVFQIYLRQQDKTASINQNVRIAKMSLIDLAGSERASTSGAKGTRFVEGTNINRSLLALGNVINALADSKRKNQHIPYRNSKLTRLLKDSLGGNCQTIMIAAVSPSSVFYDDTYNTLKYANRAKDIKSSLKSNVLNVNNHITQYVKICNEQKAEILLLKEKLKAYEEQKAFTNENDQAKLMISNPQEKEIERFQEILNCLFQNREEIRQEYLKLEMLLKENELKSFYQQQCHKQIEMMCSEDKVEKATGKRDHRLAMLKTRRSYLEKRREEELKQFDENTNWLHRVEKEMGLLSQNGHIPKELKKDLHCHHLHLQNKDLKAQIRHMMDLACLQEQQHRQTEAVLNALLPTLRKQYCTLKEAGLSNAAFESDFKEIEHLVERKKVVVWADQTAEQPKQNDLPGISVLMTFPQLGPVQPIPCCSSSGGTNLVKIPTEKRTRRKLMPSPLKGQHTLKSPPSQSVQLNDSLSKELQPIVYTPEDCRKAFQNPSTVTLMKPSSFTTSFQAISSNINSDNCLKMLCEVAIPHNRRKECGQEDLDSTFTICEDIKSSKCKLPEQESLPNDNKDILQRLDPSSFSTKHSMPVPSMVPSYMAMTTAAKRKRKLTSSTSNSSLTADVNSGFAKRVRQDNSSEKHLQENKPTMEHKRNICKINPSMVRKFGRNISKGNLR
Method: The KIF18A assay was performed as follows:
1.1. Prepared 1× Kinase Buffer
• a) Added 40 μL test compound to 384-well dilution plate • b) Diluted compound 1:3 in succession in DMSO for each column for 10 pts • c) Transferred 0.1 μL diluted compound solution to 384 assay plate using Echo, each column containing 2 replicates • d) Added 5 μL enzyme working solution to 384-well assay plate, centrifuge 1000 RPM for 1 min e) Incubated at 25° C. for 15 min • f) Added 5 μL ATP working solution to initiate reaction • g) Incubated at 25° C. for 60 min • h) Added 10 μL ADP Glo reagent, centrifuge 1000 RPM for 1 min • i) Incubated at 25° C. for 60 min • j) Added 20 μL kinase detection reagent, centrifuge 1000 RPM for 1 min • k) Incubated at 25° C. for 60 min • l) Read Luminescence Signal on Envision 2104 plate reader.
1.3. Data Analysis—Calculated IC50 and Plot Dose-Response Curve of Compounds:
Calculated IC50 by fitting % Inhibition values and log of compound concentrations to nonlinear regression (dose response−variable slope) with GraphPad 6.0.
[formula] • X: log of inhibitor concentration; Y: % Inhibition

[2] = tested on: OVCAR-3; assay: OVCAR3 CTG assay; type: cell-based; conditions: Homo sapiens, OVCAR-3, 144 h; CellTiter-Glo, 6 days incubation
Text: Example B2: OVCAR3 CTG Assay
• a) Preparation of complete medium: Added FBS and appropriate additives according to the information sheet provided by the vendor. Mix gently. • b) Checked the cell name and complete medium and passage number marked on the flask. For adherent cell lines, refer to c to k. For suspension cell lines, refer to g to k. • c) Removed and discarded culture medium using a vacuum pump. • d) Briefly rinsed the cell layer with 0.25% (w/v) Trypsin-0.038% (w/v) EDTA solution to remove all traces of serum that contains trypsin inhibitor. • e) Added 3.0 ml of Trypsin-EDTA solution to flask and observed cells under an inverted microscope until cell layer is dispersed. • f) Added 9.0 ml of complete growth medium and aspirated cells by gently pipetting. • g) Transfered the cell suspension to a centrifuge tube and centrifuged at 1000 rpm for 4 minutes. • h) Discarded the supernatant using a vacuum pump. • i) Added appropriate volume of complete medium. Suspended the cell pellet by gently pipetting. • j) Counted the cell numbers with Vi-cell XR and adjusted cells to appropriate density. • k) Added 190 μL of cell suspension to 96-well opaque-walled clear bottom plates according to the planned plate layout and placed the plates in the CO2 incubator overnight.
2) Compound Stock Preparation:
• a) Plate preparation of testing articles:
The compounds were dissolved in DMSO to prepare 10 mM stock solution. The start working concentration (2 mM) was prepared with DMSO.
b) Staurosporine Plate Preparation:
0.4 mM Staurosporine was prepared in DMSO at working concentration.
The 20× compound containing medium was prepared according to the plate map. 10 μL of 20× compound containing medium was added into each well of the assay plates. Centrifuged at 1000 rpm for 1 minute. The total dilution was 200-fold.
3) Cells were Incubated with the Compounds for 6 Days at 5% CO2, 37° C.
Assay Measurement for CTG Assay
1) Preparation of Reagents
• a) Thawed the CellTiter-Glo buffer and equilibrated to room temperature prior to use. • b) Equilibrated the lyophilized CellTiter-Glo substrate to room temperature prior to use. • c) Transfered the appropriate volume of CellTiter-Glo buffer into the amber bottle containing CellTiter-Glo substrate to reconstitute the lyophilized enzyme/substrate mixture. This formed the CellTiter-Glo reagent. • d) Mixed by gently vortexing, swirling or by inverting the contents to obtain a homogeneous solution. The CellTiter-Glo substrate went into solution easily in less than one minute.
• a) Observed the cell morphology under an inverted microscope after corresponding treatment. • b) Equilibrated the plate and its contents to room temperature for approximately 30 minutes. • c) Added 100 μL of CellTiter-Glo reagent to the assay plate by Multidrop Combi instrument. • d) Mixed contents for 10 minutes on an orbital shaker to induce cell lysis. • e) Allowed the plate to incubate at room temperature for 10 minutes to stabilize luminescent signal. • f) Pasted the clear bottom with white back seal and record luminescence with Envision. The settings should be: Luminescence, measurement time 0.1 s.

IC50 [1] [nM] | IC50 [2] [nM] | SMILES
10 to 100 | 100 to 1000 | Cc1cc2nc(n1)N(C)C[C@H](C)COCC1(C)CCN(CC1)c1cc(NS(=O)(=O)CCO)ccc1C(=O)N2 [EX33-A]
10 to 100 | 10 to 100 | Cc1cc2nc(n1)NC[C@H](C)COCC1(C(F)(F)F)CCN(CC1)c1cc(NS(=O)(=O)CCO)ccc1C(=O)N2 [EX36-A]
< 10 | < 10 | Cc1cc2nc(n1)N1CCOC(COCC3(C(F)(F)F)CCN(CC3)c3cc(NS(=O)(=O)CCO)c(F)cc3C(=O)N2)C1 (centres unmarked) [EX112]
10 to 100 | 100 to 1000 | Cc1cc2nc(n1)N(C)CC(C)COCC1(C(F)(F)F)CCN(CC1)c1cc(NS(=O)(=O)CCO)ccc1C(=O)N2 (centres unmarked) [EX35]
10 to 100 | 100 to 1000 | Cc1cc2nc(n1)NCCCCOC1(C)CCN(CC1)c1cc(NS(=O)(=O)CCO)ccc1C(=O)N2 [EX18]
10 to 100 | 1000 to 10000 | Cc1cc2nc(n1)N(C)C[C@@H](C)COCC1(C)CCN(CC1)c1cc(NS(=O)(=O)CCO)ccc1C(=O)N2 [EX33-B]
< 10 | 10 to 100 | C[C@H]1CNc2cccc(n2)NC(=O)c2ccc(NS(=O)(=O)CCO)cc2N2CCC(C(F)(F)F)(CC2)COC1 [EX56-A]
10 to 100 | < 10 | O=C1Nc2cccc(n2)N2CCO[C@@H](COCC3(C(F)(F)F)CCN(CC3)c3cc(NS(=O)(=O)CCO)ccc31)C2 [EX81-A]
100 to 1000 | 100 to 1000 | CN1CCCOCC2(C)CCN(CC2)c2cc(NS(=O)(=O)CCO)ccc2C(=O)Nc2cccc(n2)C1=O [EX22]
10 to 100 | 100 to 1000 | CNS(=O)(=O)c1ccc2c(c1)N1CCC(C)(CC1)COCCCN(C)c1nc(C)cc(n1)NC2=O [EX16]
10 to 100 | 100 to 1000 | O=C1Nc2cccc(n2)OCCCOCC2CCN(CC2)c2cc(NS(=O)(=O)CCO)ccc21 [EX11]
10 to 100 | 100 to 1000 | CC12CCN(CC1)c1cc(NS(=O)(=O)CCO)ccc1C(=O)Nc1ccc(=O)n(n1)CCCCOC2 [EX13]
10 to 100 | 100 to 1000 | Cc1cc2nc(n1)N(C)CCCOCC1(C)CCN(CC1)c1cc(S(=O)(=O)NC(C)(C)C)ccc1C(=O)N2 [EX15]
10 to 100 | 10 to 100 | CC1CNc2cc(ccn2)NC(=O)c2ccc(NS(=O)(=O)CCO)cc2N2CCC(C(F)(F)F)(CC2)COC1 (centres unmarked) [EX57]
10 to 100 | < 10 | Cc1cc2nc(n1)NC[C@@H](C)COCC1(C(F)(F)F)CCN(CC1)c1cc(NS(=O)(=O)CCO)ccc1C(=O)N2 [EX36-B]
< 10 | < 10 | Cc1cc2nc(n1)NCC(C)COCC1(C)CCN(CC1)c1cc(NS(=O)(=O)CCO)ccc1C(=O)N2 (centres unmarked) [EX19]
< 10 | < 10 | Cc1cc2nc(n1)NCCCCCC1(C)CCN(CC1)c1cc(NS(=O)(=O)CCO)ccc1C(=O)N2 [EX34]
< 10 | 10 to 100 | Cc1cc2nc(n1)NCCCCC1(C)CCN(CC1)c1cc(NS(=O)(=O)CCO)ccc1C(=O)N2 [EX37]
10 to 100 | 1000 to 10000 | Cc1cc2nc(n1)N(CC(F)(F)F)CCCOCC1(C)CCN(CC1)c1cc(NS(=O)(=O)CCO)ccc1C(=O)N2 [EX26]

IC50 [1] [nM] | IC50 [2] [nM] | SMILES
< 10 | 10 to 100 | CN1CCCOCC2(C(F)(F)F)CCN(CC2)c2cc(NS(=O)(=O)CCO)ccc2C(=O)Nc2ccnc1n2 [EX74]
10 to 100 | < 10 | Cc1cc2nc(n1)NCCCOCC1(C)CCN(CC1)c1cc(S(=O)(=O)NC(C)(C)C)ccc1C(=O)N2 [EX25]
10 to 100 | 10 to 100 | Cc1cc2nc(n1)NCCC(C)OCC1(C)CCN(CC1)c1cc(NS(=O)(=O)CCO)ccc1C(=O)N2 (centres unmarked) [EX38]
10 to 100 | 100 to 1000 | Cc1cc2nc(n1)OCCOCC1(C)CCN(CC1)c1cc(NS(=O)(=O)CCO)ccc1C(=O)N2 [EX03]
10 to 100 | 10 to 100 | O=C1Nc2ccc(=O)n(n2)CCCCOCC2(C(F)(F)F)CCN(CC2)c2cc(NS(=O)(=O)CCO)ccc21 [EX50]
< 10 | 100 to 1000 | CN1CCCOCC2(C(F)(F)F)CCN(CC2)c2nc(NS(=O)(=O)CCO)ccc2C(=O)Nc2cccc1n2 [EX72]
10 to 100 | 100 to 1000 | CN1CCOCC2(C)CCN(CC2)c2cc(NS(=O)(=O)CCO)ccc2C(=O)Nc2cccc(c2)C1=O [EX10]
10 to 100 | 10 to 100 | CN1CCCOCC2(C(F)(F)F)CCN(CC2)c2cc(NS(=O)(=O)CCO)ccc2C(=O)Nc2ccc(C#N)c1n2 [EX73]
< 10 | 10 to 100 | C[C@@H]1CCCC2(C(F)F)CCN(CC2)c2cc(NS(=O)(=O)CCO)ccc2C(=O)Nc2cccc(n2)NC1 [EX102-A]
10 to 100 | 100 to 1000 | CC12CCN(CC1)c1cc(NS(=O)(=O)CCO)ccc1C(=O)Nc1cccc(n1)OCCOC2 [EX01]
10 to 100 | 10 to 100 | COC1CNc2nc(C)cc(n2)NC(=O)c2ccc(NS(=O)(=O)CCO)cc2N2CCC(C)(CC2)COC1 (centres unmarked) [EX31]
10 to 100 | 10 to 100 | CN1CCCOCC2(C(F)(F)F)CCN(CC2)c2cc(NS(=O)(=O)CCO)ncc2C(=O)Nc2cccc1n2 [EX82]
10 to 100 | 10 to 100 | [2H]C([2H])([2H])N1CCCOCC2(C(F)(F)F)CCN(CC2)c2cc(NS(=O)(=O)CCO)ccc2C(=O)Nc2cccc1n2 [EX48]
< 10 | 100 to 1000 | CC12CCN(CC1)c1cc(NS(C)(=O)=O)ccc1C(=O)Nc1cccc(n1)OCCCOC2 [EX08]
< 10 | < 10 | Cc1cc2nc(n1)NCCCOCC1(C(F)(F)F)CCN(CC1)c1cc(NS(=O)(=O)CCO)ccc1C(=O)N2 [EX17]
10 to 100 | 100 to 1000 | Cc1cc2nc(n1)N(C1CC1)CCCOCC1(C(F)(F)F)CCN(CC1)c1cc(NS(=O)(=O)CCO)ccc1C(=O)N2 [EX45]
10 to 100 | 10 to 100 | Cc1cc2nc(n1)NC(C)CCOCC1(C)CCN(CC1)c1cc(NS(=O)(=O)CCO)ccc1C(=O)N2 (centres unmarked) [EX20]
10 to 100 | 100 to 1000 | [2H]C([2H])([2H])N1CCCOCC2(C(F)(F)F)CCN(CC2)c2cc(NS(=O)(=O)CCO)ccc2C(=O)Nc2cc(C)cc1n2 [EX67]
